From ChEMBL document CHEMBL1149021, “Vasoactive substances from Saussurea lappa” (J Nat Prod, 1986) come the findings set out here.

Calls of active or inactive are those of the source. The rule behind the calls is not given here.

The species named for this test is Oryctolagus cuniculus. Description: Vasorelaxant activity in rabbit aorta assessed as inhibition of KCl-induced contraction. It is filed as functional, tissue-based.

With `C=C1C(=O)O[C@@H]2/C=C(\C)CC/C=C(\C)CC[C@@H]12`, the outcome was Active.

For `C=C1CC[C@H]2C(=C)C(=O)O[C@@H]2C2C(=C)CCC12` (some centres not stated), the result was Active.
